How the values were obtained:
Assay type in all cases: functional
LOX IMVI = experiment: Growth inhibition of human LOX IMVI cells incubated for 48 hrs by sulforhodamine B assay
K562 = experiment: Growth inhibition of human K562 cells at 10 uM incubated for 48 hrs by sulforhodamine B assay relative to control; settings: read-out: GI
NCI-H460 [1] = experiment: Growth inhibition of human NCI-H460 cells incubated for 48 hrs by sulforhodamine B assay
COLO 205 = experiment: Growth inhibition of human COLO 205 cells incubated for 48 hrs by sulforhodamine B assay
NCI-H460 [2] = experiment: Growth inhibition of human NCI-H460 cells at 10 uM incubated for 48 hrs by sulforhodamine B assay relative to control; settings: read-out: GI
SK-MEL-28 = experiment: Growth inhibition of human SK-MEL-28 cells at 10 uM incubated for 48 hrs by sulforhodamine B assay relative to control; settings: read-out: GI
NCI-H322M = experiment: Growth inhibition of human NCI-H322M cells incubated for 48 hrs by sulforhodamine B assay
SK-MEL-5 = experiment: Growth inhibition of human SK-MEL-5 cells at 10 uM incubated for 48 hrs by sulforhodamine B assay relative to control; settings: read-out: GI
HT-29 = experiment: Growth inhibition of human HT-29 cells incubated for 48 hrs by sulforhodamine B assay
U-251 = experiment: Growth inhibition of human U-251 cells incubated for 48 hrs by sulforhodamine B assay
TK-10 = experiment: Growth inhibition of human TK-10 cells at 10 uM incubated for 48 hrs by sulforhodamine B assay relative to control; settings: read-out: GI
CCRF-CEM = experiment: Growth inhibition of human CCRF-CEM cells at 10 uM incubated for 48 hrs by sulforhodamine B assay relative to control; settings: read-out: GI
RPMI-8226 = experiment: Growth inhibition of human RPMI-8226 cells incubated for 48 hrs by sulforhodamine B assay
SF-268 = experiment: Growth inhibition of human SF-268 cells incubated for 48 hrs by sulforhodamine B assay
OVCAR-3 = experiment: Growth inhibition of human OVCAR-3 cells incubated for 48 hrs by sulforhodamine B assay
SR = experiment: Growth inhibition of human SR cells incubated for 48 hrs by sulforhodamine B assay
EKVX [3] = experiment: Growth inhibition of human EKVX cells incubated for 48 hrs by sulforhodamine B assay
A549 = experiment: Growth inhibition of human A549/ATCC cells incubated for 48 hrs by sulforhodamine B assay
T47D = experiment: Growth inhibition of human T47D cells at 10 uM incubated for 48 hrs by sulforhodamine B assay relative to control; settings: read-out: GI
SK-OV-3 [4] = experiment: Growth inhibition of human SK-OV-3 cells incubated for 48 hrs by sulforhodamine B assay
BT-549 = experiment: Growth inhibition of human BT-549 cells at 10 uM incubated for 48 hrs by sulforhodamine B assay relative to control; settings: read-out: GI
UACC-62 = experiment: Growth inhibition of human UACC-62 cells at 10 uM incubated for 48 hrs by sulforhodamine B assay relative to control; settings: read-out: GI
SK-MEL-2 [5] = experiment: Growth inhibition of human SK-MEL-2 cells at 10 uM incubated for 48 hrs by sulforhodamine B assay relative to control; settings: read-out: GI
SNB-19 = experiment: Growth inhibition of human SNB-19 cells at 10 uM incubated for 48 hrs by sulforhodamine B assay relative to control; settings: read-out: GI
SK-OV-3 [6] = experiment: Growth inhibition of human SK-OV-3 cells at 10 uM incubated for 48 hrs by sulforhodamine B assay relative to control; settings: read-out: GI
HCT-116 = experiment: Growth inhibition of human HCT-116 cells incubated for 48 hrs by sulforhodamine B assay
SNB-75 = experiment: Growth inhibition of human SNB-75 cells incubated for 48 hrs by sulforhodamine B assay
MDA-MB-435 = experiment: Growth inhibition of human MDA-MB-435 cells at 10 uM incubated for 48 hrs by sulforhodamine B assay relative to control; settings: read-out: GI
786-0 = experiment: Growth inhibition of human 786-0 cells incubated for 48 hrs by sulforhodamine B assay
IGROV-1 = experiment: Growth inhibition of human IGROV-1 cells at 10 uM incubated for 48 hrs by sulforhodamine B assay relative to control; settings: read-out: GI
SK-MEL-2 [7] = experiment: Growth inhibition of human SK-MEL-2 cells incubated for 48 hrs by sulforhodamine B assay
MDA-MB-468 = experiment: Growth inhibition of human MDA-MB-468 cells incubated for 48 hrs by sulforhodamine B assay
HL-60(TB) = experiment: Growth inhibition of human HL-60(TB) cells incubated for 48 hrs by sulforhodamine B assay
EKVX [8] = experiment: Growth inhibition of human EKVX cells at 10 uM incubated for 48 hrs by sulforhodamine B assay relative to control; settings: read-out: GI
A498 = experiment: Growth inhibition of human A498 cells at 10 uM incubated for 48 hrs by sulforhodamine B assay relative to control; settings: read-out: GI
[9] = read-out: LC50 (the source's name)

Compound: O=C(CNc1ccc(Cl)cc1)Nc1ccc(-c2nc3ccccc3s2)cc1
- GI50 (LOX IMVI): 1.29 µM
- LC50 (LOX IMVI): 5.74 µM
- TGI (LOX IMVI): 2.72 µM
- inhibition of growth at 10 µM (K562): 88.1%
- GI50 (NCI-H460 [1]): 3.73 µM
- TGI (NCI-H460 [1]): 13.1 µM
- CC50 (NCI-H460 [1]; [9]): 39.8 µM
- GI50 (COLO 205): 2.08 µM
- LC50 (COLO 205): 9.08 µM
- TGI (COLO 205): 4.35 µM
- inhibition of growth at 10 µM (NCI-H460 [2]): 12.9%
- inhibition of growth at 10 µM (SK-MEL-28): 0.54%
- GI50 (NCI-H322M): 2 µM
- LC50 (concentration killing 50% of cells) (NCI-H322M): 12.3 µM
- TGI (NCI-H322M): 4.65 µM
- inhibition of growth at 10 µM (SK-MEL-5): 75%
- GI50 (HT-29): 1.96 µM
- LC50 (HT-29): 8.17 µM
- TGI (HT-29): 4 µM
- GI50 (U-251): 1.94 µM
- LC50 (lethal concentration 50) (U-251): 7.84 µM
- TGI (U-251): 3.9 µM
- inhibition of growth at 10 µM (TK-10): -18.4%
- inhibition of growth at 10 µM (CCRF-CEM): 96.8%
- GI50 (RPMI-8226): 2.52 µM
- LC50 (RPMI-8226): > 100 µM
- TGI (RPMI-8226): 6.73 µM
- GI50 (SF-268): 2 µM
- LC50 (SF-268): 15 µM
- TGI (SF-268): 4.76 µM
- GI50 (OVCAR-3): 1.85 µM
- LC50 (OVCAR-3): 5.88 µM
- TGI (OVCAR-3): 3.3 µM
- GI50 (SR): 1.62 µM
- LC50 (SR): > 100 µM
- TGI (SR): 5.76 µM
- GI50 (EKVX [3]): 4.36 µM
- LC50 (EKVX [3]): 66.9 µM
- TGI (EKVX [3]): 19.1 µM
- GI50 (A549): 3.31 µM
- TGI (A549): 13.7 µM
- CC50 (A549; [9]): > 100 µM
- inhibition of growth at 10 µM (T47D): 95.4%
- GI50 (SK-OV-3 [4]): 4.57 µM
- LC50 (concentration killing 50% of cells) (SK-OV-3 [4]): > 100 µM
- TGI (SK-OV-3 [4]): 61.8 µM
- inhibition of growth at 10 µM (BT-549): 83.3%
- inhibition of growth at 10 µM (UACC-62): 69.9%
- inhibition of growth at 10 µM (SK-MEL-2 [5]): 21.5%
- inhibition of growth at 10 µM (SNB-19): 36.4%
- inhibition of growth at 10 µM (SK-OV-3 [6]): 10.2%
- GI50 (HCT-116): 1.84 µM
- TGI (HCT-116): 3.91 µM
- CC50 (HCT-116; [9]): 8.3 µM
- GI50 (SNB-75): 2.65 µM
- LC50 (concentration killing 50% of cells) (SNB-75): 37.6 µM
- TGI (SNB-75): 14.1 µM
- inhibition of growth at 10 µM (MDA-MB-435): 37.2%
- GI50 (786-0): 1.85 µM
- LC50 (50% lethal concentration) (786-0): 9 µM
- TGI (786-0): 4.08 µM
- inhibition of growth at 10 µM (IGROV-1): 65.7%
- GI50 (SK-MEL-2 [7]): 6.19 µM
- LC50 (lethal concentration, 50% cell kill) (SK-MEL-2 [7]): > 100 µM
- TGI (SK-MEL-2 [7]): 27.9 µM
- GI50 (MDA-MB-468): 0.0238 µM
- TGI (MDA-MB-468): 0.353 µM
- CC50 (MDA-MB-468; [9]): 6.19 µM
- GI50 (HL-60(TB)): 2.23 µM
- TGI (HL-60(TB)): 6.05 µM
- CC50 (HL-60(TB); [9]): > 100 µM

Compound: O=C(Cn1cnc2ccccc21)Nc1ccc(-c2nc3ccccc3s2)cc1
- inhibition of growth at 10 µM (K562): 66.4%
- inhibition of growth at 10 µM (NCI-H460 [2]): 34.3%
- inhibition of growth at 10 µM (SK-MEL-28): -0.72%
- inhibition of growth at 10 µM (SK-MEL-5): 70.9%
- inhibition of growth at 10 µM (EKVX [8]): 46.8%
- inhibition of growth at 10 µM (A498): 33.2%
- inhibition of growth at 10 µM (TK-10): 22.6%
- inhibition of growth at 10 µM (CCRF-CEM): 27.1%
- inhibition of growth at 10 µM (T47D): 52.8%
- inhibition of growth at 10 µM (BT-549): 43.5%
- inhibition of growth at 10 µM (UACC-62): 13%
- inhibition of growth at 10 µM (SNB-19): 28.5%
- inhibition of growth at 10 µM (SK-OV-3 [6]): 15.1%
- inhibition of growth at 10 µM (MDA-MB-435): 32.3%
- inhibition of growth at 10 µM (IGROV-1): 35.1%

Compound: O=C(Cn1ccnc1)Nc1ccc(-c2nc3ccccc3s2)cc1
- inhibition of growth at 10 µM (K562): 60.4%
- inhibition of growth at 10 µM (NCI-H460 [2]): 20.2%
- inhibition of growth at 10 µM (SK-MEL-28): -4.87%
- inhibition of growth at 10 µM (SK-MEL-5): 60.8%
- inhibition of growth at 10 µM (EKVX [8]): 38.6%
- inhibition of growth at 10 µM (A498): 42.5%
- inhibition of growth at 10 µM (TK-10): 18.2%
- inhibition of growth at 10 µM (CCRF-CEM): 30.9%
- inhibition of growth at 10 µM (T47D): 48.6%
- inhibition of growth at 10 µM (BT-549): 34.9%
- inhibition of growth at 10 µM (UACC-62): 17.1%
- inhibition of growth at 10 µM (SNB-19): 23.6%
- inhibition of growth at 10 µM (SK-OV-3 [6]): 12.2%
- inhibition of growth at 10 µM (MDA-MB-435): 18.4%
- inhibition of growth at 10 µM (IGROV-1): 31.1%

Source: ChEMBL document CHEMBL4765227, “Hit to lead optimization of a series of N-[4-(1,3-benzothiazol-2-yl)phenyl]acetamides as monoacylglycerol lipase inhibitors with potential anticancer activity” (Eur J Med Chem, 2016)
